Paper PMC9292215 (Clinical Pharmacology and Therapeutics, 2021)

Legend:
[1] = Plasma pharmacokinetics of BIA 10-2474 and metabolites; format: in vivo, human
[2] = cited from earlier work
FAAH = molecular target: T1, FAAH (Homo sapiens, UniProt O00519); settings: cited from earlier work
T1 sequence (O00519 1-579): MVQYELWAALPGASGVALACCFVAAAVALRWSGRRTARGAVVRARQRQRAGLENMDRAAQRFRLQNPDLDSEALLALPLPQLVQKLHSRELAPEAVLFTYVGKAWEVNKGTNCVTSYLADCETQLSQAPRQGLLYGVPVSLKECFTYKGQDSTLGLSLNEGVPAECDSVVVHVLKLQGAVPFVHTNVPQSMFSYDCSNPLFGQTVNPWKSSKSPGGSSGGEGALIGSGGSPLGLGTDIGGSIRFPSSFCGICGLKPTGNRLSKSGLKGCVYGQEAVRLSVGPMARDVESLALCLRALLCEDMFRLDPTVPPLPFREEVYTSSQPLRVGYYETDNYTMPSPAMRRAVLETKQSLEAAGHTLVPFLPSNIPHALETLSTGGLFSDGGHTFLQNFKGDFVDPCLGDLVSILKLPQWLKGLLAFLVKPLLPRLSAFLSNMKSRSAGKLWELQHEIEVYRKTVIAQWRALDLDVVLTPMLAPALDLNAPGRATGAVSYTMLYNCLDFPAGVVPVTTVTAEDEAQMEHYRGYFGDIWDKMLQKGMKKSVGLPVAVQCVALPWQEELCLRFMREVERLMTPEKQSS

[3] = 20 mg BIA 10-2474 once daily, Day 10
[4] = after single dose 100 mg BIA 10-2474
[5] = repeated dose levels below 20 mg for 10 days
[6] = 20 mg BIA 10-2474 once daily, Day 1
[7] = after single dose 40 mg BIA 10-2474

AUC0–t of metabolite [1, 3] | Cmax of metabolite [1, 3] | tmax of metabolite [1, 3] | AUC0-t of metabolite [1, 4] | Cmax of metabolite [1, 4] | tmax of metabolite [1, 4] | plasma abundance of metabolite [1, 5] | plasma abundance of metabolite ([1]; single dose levels below 40 mg) | AUC0-t of metabolite [1, 7] | Cmax of metabolite [1, 7] | tmax of metabolite [1, 7] | SMILES | tested dose as multiple of the dose required for complete FAAH inhibition (FAAH) | other results
47.3 (20.6) ng⋅hour/mL | 5.8 (1.7) ng/mL | 1.0 (1.0–2.0) hour | 206 (40.7) ng hour/mL | 19.6 (29.1) ng/mL | 2.0 (1.0–3.0) hour | undetectable | undetectable | 59.2 (30.6) ng hour/mL | 8.09 (30.7) ng/mL | 2.0 (1.0–3.0) hour | CN(C(=O)n1cnc(-c2ccc[n+]([O-])c2)c1)[C@H]1CC[C@H](O)CC1 [BIA 10-2639, N-(trans-4-hydroxycyclohexyl)-N-methyl-4-(1-oxidopyridin-3-yl)l-1H-imidazole-1-carboxamide] | – | AUC0–t of metabolite [1, 6]: 21.8 (6.8) ng⋅hour/mL; AUC0–∞ of metabolite [1, 6]: 26.6 (8.5) ng⋅hour/mL; Cmax of metabolite [1, 6]: 4.1 (0.5) ng/mL; t1/2 of metabolite [1, 6]: 9.94 (1.79) h; tmax of metabolite [1, 6]: 1.0 (1.0–2.0) hour; t1/2 of metabolite [1, 7]: 9.78 (67.1) hour; AUC0-∞ of metabolite [1, 4]: 271 (35.6) ng hour/mL; t1/2 of metabolite [1, 4]: 9.20 (15.2) hour
105 (64.7) ng⋅hour/mL | 8.27 (3.42) ng/mL | 4.0 (4.0–12.0) hour | 303 (68.3) ng hour/mL | 11.4 (27.1) ng/mL | 12.0 (3.0–24.0) hour | undetectable | undetectable | 51.3 (71.4) ng hour/mL | 4.66 (44.7) ng/mL | 12.0 (3.0–24.0) hour | CN(C(=O)n1cnc(-c2cccnc2)c1)C1CCCCC1 [BIA 10-2445] | – | –
– | – | – | – | – | – | undetectable | undetectable | – | – | – | O=C(NC1CCCCC1)n1cnc(-c2ccc[n+]([O-])c2)c1 [BIA 10-2583] | – | –

The remaining lines, values behind:

SMILES | AUC0–t of metabolite [1, 3] | Cmax of metabolite [1, 3] | tmax of metabolite [1, 3] | AUC0-t of metabolite [1, 4] | Cmax of metabolite [1, 4] | tmax of metabolite [1, 4] | plasma abundance of metabolite [1, 5] | plasma abundance of metabolite ([1]; single dose levels below 40 mg) | AUC0-t of metabolite [1, 7] | Cmax of metabolite [1, 7] | tmax of metabolite [1, 7] | tested dose as multiple of the dose required for complete FAAH inhibition (FAAH) | other results
CN(C(=O)n1cnc(-c2cccnc2)c1)[C@H]1CC[C@H](O)CC1 [BIA 10-2631, N-(trans-4-hydroxycyclohexyl)-N-methyl-4-pyridin-3-yl-1H-imidazole-1-carboxamide] | 203 (197) ng⋅hour/mL | 7.41 (3.9) ng/mL | 4.0 (2.0–24.0) hour | 359 (36.3) ng hour/mL | 7.1 (30.9) ng/mL | 18.0 (2.0–24.0) hour | undetectable | undetectable | – | – | – | – | –
O=C(Nc1cnccc1Cl)N1CCN(Cc2ccc3c(c2)OC(F)(F)O3)CC1 [JNJ-42165279] | – | – | – | – | – | – | – | – | – | – | – | at least 10 times | half-life [2]: 8 to 14 h; duration of FAAH inhibition (FAAH): > 24 h
O=C(Nc1cccnn1)N1CCC(=Cc2cccc(Oc3ccc(C(F)(F)F)cn3)c2)CC1 [PF-04457845] | – | – | – | – | – | – | – | – | – | – | – | 133 times | FAAH inhibition (FAAH; for 6 days or more): more than 90%
